Assay results: patent publication US20230220047A1, “PEPTIDES FOR TREATMENT OF SEPSIS AND CANCER” (NORWEGIAN UNIVERSITY OF SCIENCE AND TECHNOLOGY (NTNU), priority 2020, published 2023)

Test system: primary human monocytes
Assay: Confocal analysis of E. coli particle uptake by primary human monocytes
Assay type: cell-based
Conditions: 15 μM, level comparable with CytoD treated cells
Experimental: Cells were pre-incubated with Pen or P7-Pen peptides, followed by addition of Alexa Fluor 488-labeled bioparticles for the times indicated (15, 30 or 45 min). Fluorescent bacteria particles were counted by spot-detection in Bitplane Imaris imaging software and used to calculate the number of particles per cell. […] Pre-incubation with 3 μM cytochalasin D (CytoD, and inhibitor of actin polymerization) inhibited uptake of E. coli to a similar extent as P7-Pen.
THP-1 cells, THP-1^cherry cells or human PBMC were seeded in 24-well glass-bottom plates (MatTek Corporation), 125,000 cells/well. The THP-1 cells were differentiated into macrophages with 60 ng/ml PMA for 72 h and thereafter rested for 48 h, whereas the PBMC were used the day after isolation. The P7-penatratin peptide or control peptide was added to the cells 30 min before stimulation at 15 μM concentration. If used, 3 μM cytochalasin D (CytoD) was added simultaneously. […] A spot detection mode in the Bitplan Imaris software was used to define individual phagosomes and cells were counted manually. […] Fluorescence voxel intensity of TRAM^cherry at the phagosome is also presented. Statistical significance was calculated in GraphPad Prism by One-way ANOVA Kruskal-Wallis multiple comparison test. […]

Ac-ITVYASVTLTGRQIKIWFQNRRMKWKK-NH2 [Peptide P7-Pen]
uptake of E. coli particles: inhibited
